Molecules are shown by their SMILES.

Here are results for 14 compounds from patent publication US20260216347A1, “Substituted Imidazo-Based Compounds as Ligand Directed Degraders of IRAK3” (Celgene Corporation, priority 2022, published 2026).

The assay addresses T1, IRAK3-ePL (Homo sapiens, UniProt Q9Y616).
T1 construct: expressed in transfected cells; host or cells: 293T CRBN OE/GSPT1 G575N KI cells, lentiviral transduction, puromycin selected
Put plainly: IRAK3-ePL overexpressing degradation assay (InCELL Hunter luminescence, dose response). Type of assay: cell-based. To be noted: for IRAK3 ePL degradation Ymin: lowest percentage of target protein remaining following compound treatment; for DC50: read-out: IRAK3 ePL degradation EC50. In short, it runs like this: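 Lenti-X 293T CRBN/GSPT1 G575N cells stably expressing IRAK3-ePL (5,000/well) treated overnight at 37° C with 10-point 3-fold dilutions from 10 μM, 0.2% DMSO. InCELL Hunter luminescence, background subtracted using Ataluren wells and normalized to DMSO; EC50 from four-parameter logistic fit.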

Turning to `Cc1cc(-c2cnc(Nc3cnn([C@H]4CC[C@@H](CN5CCN(c6ccc(C7CCC(=O)NC7=O)cc6)CC5)CC4)c3)c3nccn23)c(F)cc1F` (relative stereo) [Compound 71, 3-(4-(4-(((cis)-4-(4-((5-(2,4-difluoro-5-methylphenyl)imidazo[1,2-a]pyrazin-8-yl)amino)-1H-pyrazol-1-yl)cyclohexyl)methyl)piperazin-1-yl)phenyl) piperidine-2,6-dione], the “IRAK3 ePL degradation Ymin” value was 29% and the DC50 turned out to be 1.7 nM.
Turning to `Cc1cccc(-c2cnc(Nc3cnn(C4CCN(CC(=O)N5CCN(c6ccc7c(c6)C(=O)N(C6CCC(=O)NC6=O)C7=O)CC5)CC4)c3)c3nccn23)c1` (stereo not shown) [Compound 1, 2-(2,6-dioxopiperidin-3-yl)-5-(4-(2-(4-(4-((5-(m-tolyl)imidazo[1,2-a]pyrazin-8-yl)amino)-1H-pyrazol-1-yl)piperidin-1-yl)acetyl)piperazin-1-yl)isoindoline-1,3-dione], the “IRAK3 ePL degradation Ymin” value worked out at 31% and the DC50 was 39 nM.
In the same order, the values of `Cc1cccc(-c2cnc(Nc3cnn(C4CCN(CCN5CCN(c6ccc7c(c6)C(=O)N(C6CCC(=O)NC6=O)C7=O)CC5)CC4)c3)c3nccn23)c1` (stereo not shown) [Compound 2, 2-(2,6-dioxopiperidin-3-yl)-5-(4-(2-(4-(4-((5-(m-tolyl)imidazo[1,2-a]pyrazin-8-yl)amino)-1H-pyrazol-1-yl)piperidin-1-yl)ethyl)piperazin-1-yl)isoindoline-1,3-dione] are 15% and 3 nM.
For `Cc1cccc(-c2cnc(Nc3cnn(C4CCN(CCCCN5CCN(c6ccc(C7CCC(=O)NC7=O)cc6)CC5)CC4)c3)c3nccn23)c1` (stereo not shown) [Compound 3, 3-(4-(4-(4-(4-(4-((5-(m-tolyl)imidazo[1,2-a]pyrazin-8-yl)amino)-1H-pyrazol-1-yl)piperidin-1-yl)butyl)piperazin-1-yl)phenyl) piperidine-2,6-dione], in that order: 15% and 3 nM.
In the same order, the values of `Cc1cccc(-c2cnc(Nc3cnn(C4CCN(CCCN5CCN(c6ccc(C7CCC(=O)NC7=O)cc6)CC5)CC4)c3)c3nccn23)c1` (stereo not shown) [Compound 4, 3-(4-(4-(3-(4-(4-((5-(m-tolyl)imidazo[1,2-a]pyrazin-8-yl)amino)-1H-pyrazol-1-yl)piperidin-1-yl)propyl)piperazin-1-yl)phenyl) piperidine-2,6-dione] are 13% and 4 nM.
In the case of `Cc1cc(-c2cnc(Nc3cnn(C4CCN(CC(=O)N5CCN(c6ccc7c(c6)C(=O)N(C6CCC(=O)NC6=O)C7=O)CC5)CC4)c3)c3nccn23)c(F)cc1F` (stereo not shown) [Compound 6, 5-(4-(2-(4-(4-((5-(2,4-difluoro-5-methylphenyl)imidazo[1,2-a]pyrazin-8-yl)amino)-1H-pyrazol-1-yl)piperidin-1-yl)acetyl)piperazin-1-yl)-2-(2,6-dioxopiperidin-3-yl)isoindoline-1,3-dione], the “IRAK3 ePL degradation Ymin” value came out at 17% and the DC50 was found to be 22 nM.
Turning to `Cc1cc(-c2cnc(Nc3cnn(C4CCN(CCN5CCN(c6ccc(C7CCC(=O)NC7=O)cc6)C[C@@H]5C)CC4)c3)c3nccn23)c(F)cc1F` (stereo partly drawn) [Compound 7, 3-(4-((S)-4-(2-(4-(4-((5-(2,4-difluoro-5-methylphenyl)imdazo [1,2-a]pyrazin-8-yl)amino)-1H-pyrazol-1-yl)piperidin-1-yl)ethyl)-3-methylpiperazin-1-yl)phenyl) piperidine-2,6-dione], the “IRAK3 ePL degradation Ymin” value turned out to be 14% and the DC50 was 0.6 nM.
For `Cc1cc(-c2cnc(Nc3cnn(C4CCN(CCN5CCN(c6ccc(C7CCC(=O)NC7=O)cc6)CC5)CC4)c3)c3nccn23)c(F)cc1F` (stereo not shown) [Compound 8, 3-(4-(4-(2-(4-(4-((5-(2,4-difluoro-5-methylphenyl)imidazo[1,2-a]pyrazin-8-yl)amino)-1H-pyrazol-1-yl)piperidin-1-yl)ethyl)piperazin-1-yl)phenyl)piperidine-2,6-dione], in that order: 18% and 0.5 nM.
For `Cc1cc(-c2cnc(Nc3cnn(C4CCN(CCN5CCN(c6ccc(C7CCC(=O)NC7=O)cc6)C[C@H]5C)CC4)c3)c3nccn23)c(F)cc1F` (stereo partly drawn) [Compound 9, 3-(4-((R)-4-(2-(4-(4-((5-(2,4-difluoro-5-methylphenyl)imdazo [1,2-a]pyrazin-8-yl)amino)-1H-pyrazol-1-yl)piperidin-1-yl)ethyl)-3-methylpiperazin-1-yl)phenyl) piperidine-2,6-dione], in that order: 14% and 0.5 nM.
Take `Cc1cc(-c2cnc(Nc3cnn(C4CCN(CC(=O)N5CCN(c6ccc7c(c6)CN(C6CCC(=O)NC6=O)C7=O)CC5)CC4)c3)c3nccn23)c(F)cc1F` (stereo not shown) [Compound 10, 3-(5-(4-(2-(4-(4-((5-(2,4-difluoro-5-methylphenyl)imidazo[1,2-a]pyrazin-8-yl)amino)-1H-pyrazol-1-yl)piperidin-1-yl)acetyl)piperazin-1-yl)-1-oxoisoindolin-2-yl)piperidine-2,6-dione]: the “IRAK3 ePL degradation Ymin” value was determined as 22% and the DC50 came out at 19 nM.
`Cc1cc(-c2cnc(Nc3cnn([C@H]4CC[C@H](CCN5CCN(c6ccc(C7CCC(=O)NC7=O)cc6)CC5)CC4)c3)c3nccn23)c(F)cc1F` (stereo partly drawn) [Compound 11, 3-(4-(4-(2-((trans)-4-(4-((5-(2,4-difluoro-5-methylphenyl)imidazo[1,2-a]pyrazin-8-yl)amino)-1H-pyrazol-1-yl)cyclohexyl)ethyl)piperazin-1-yl)phenyl)piperidine-2,6-dione]: the “IRAK3 ePL degradation Ymin” value is given as 22% and the DC50 is 4 nM.
In the same order, the values of `Cc1cc(-c2ccc(Nc3cnn(C4CCN(CCN5CCN(c6ccc(C7CCC(=O)NC7=O)cc6)CC5)CC4)c3)c3nccn23)c(F)cc1F` (stereo not shown) [Compound 12, 3-(4-(4-(2-(4-(4-((5-(2,4-difluoro-5-methylphenyl)imdazo [1,2-a]pyridin-8-yl)amino)-1H-pyrazol-1-yl)piperidin-1-yl)ethyl)piperazin-1-yl)phenyl) piperidine-2,6-dione] are 14% and 3 nM.
As to `Cc1cc(-c2cnc(Nc3cnn(C4CCN(CCN5[C@H](C)CN(c6ccc(C7CCC(=O)NC7=O)cc6)C[C@@H]5C)CC4)c3)c3nccn23)c(F)cc1F` (stereo partly drawn) [Compound 13, 3-(4-((3S,5R)-4-(2-(4-(4-((5-(2,4-difluoro-5-methylphenyl)imdazo [1,2-a]pyrazin-8-yl)amino)-1H-pyrazol-1-yl)piperidin-1-yl)ethyl)-3,5-dimethylpiperazin-1-yl)phenyl) piperidine-2,6-dione], the “IRAK3 ePL degradation Ymin” value turned out to be 13% and the DC50 turned out to be 0.86 nM.
Consider `Cc1cc(-c2cnc(Nc3cnn([C@H]4CC[C@@H](CCN5CCN(c6ccc(C7CCC(=O)NC7=O)cc6)CC5)CC4)c3)c3nccn23)c(F)cc1F` (stereo partly drawn) [Compound 14, 3-(4-(4-(2-((cis)-4-(4-((5-(2,4-difluoro-5-methylphenyl)imidazo[1,2-a]pyrazin-8-yl)amino)-1H-pyrazol-1-yl)cyclohexyl)ethyl)piperazin-1-yl)phenyl) piperidine-2,6-dione], for which the “IRAK3 ePL degradation Ymin” value came to 15% and the DC50 worked out at 1.1 nM.
